# Source: US20020061836A1, “Methods for altering SXR activation using peptide mimetic HIV protease inhibitor SXR ligands” (priority 2000, published 2002)
# Key:
# human LXRα = target: T1, human LXRα (Homo sapiens, UniProt Q13133); assay: Nuclear receptor specificity transfection assay; type: cell-based; conditions: 10 μM paclitaxel
# T1 construct: expressed in transfected cells; host or cells: CV-1
# T1 sequence (Q13133 1-447): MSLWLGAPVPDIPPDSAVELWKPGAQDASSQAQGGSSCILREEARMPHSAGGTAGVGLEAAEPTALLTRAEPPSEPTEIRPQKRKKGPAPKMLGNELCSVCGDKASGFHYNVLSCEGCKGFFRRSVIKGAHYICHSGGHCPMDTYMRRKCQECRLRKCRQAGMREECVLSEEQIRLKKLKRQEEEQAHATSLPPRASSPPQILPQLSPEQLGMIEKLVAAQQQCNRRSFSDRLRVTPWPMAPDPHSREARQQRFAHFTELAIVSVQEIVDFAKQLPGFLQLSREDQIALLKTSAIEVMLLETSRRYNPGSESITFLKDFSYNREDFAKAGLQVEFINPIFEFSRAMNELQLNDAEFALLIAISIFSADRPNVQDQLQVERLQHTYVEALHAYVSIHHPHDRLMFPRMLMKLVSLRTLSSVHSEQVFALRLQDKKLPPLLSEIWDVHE
# human RARα = target: T2, human RARα (Homo sapiens, UniProt P10276); assay: Nuclear receptor specificity transfection assay; type: cell-based; conditions: 10 μM paclitaxel
# T2 construct: expressed in transfected cells; host or cells: CV-1
# T2 sequence (P10276 whole entry): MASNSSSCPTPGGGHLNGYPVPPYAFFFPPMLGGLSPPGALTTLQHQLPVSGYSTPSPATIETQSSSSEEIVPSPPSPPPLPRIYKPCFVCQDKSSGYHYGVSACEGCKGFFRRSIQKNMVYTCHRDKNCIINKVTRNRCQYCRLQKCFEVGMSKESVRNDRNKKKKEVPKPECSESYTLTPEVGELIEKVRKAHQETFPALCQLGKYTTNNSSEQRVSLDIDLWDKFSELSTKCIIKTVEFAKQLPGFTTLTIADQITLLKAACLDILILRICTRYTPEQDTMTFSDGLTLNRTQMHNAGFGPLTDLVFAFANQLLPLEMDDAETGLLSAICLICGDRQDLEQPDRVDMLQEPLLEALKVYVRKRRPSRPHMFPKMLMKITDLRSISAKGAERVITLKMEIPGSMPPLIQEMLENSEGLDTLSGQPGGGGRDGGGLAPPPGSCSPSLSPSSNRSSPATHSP
# mouse PPARγ = target: T3, mouse PPARγ (Mus musculus, UniProt P37238); assay: Nuclear receptor specificity transfection assay; type: cell-based; conditions: 10 μM paclitaxel
# T3 construct: expressed in transfected cells; host or cells: CV-1
# T3 sequence (P37238 whole entry): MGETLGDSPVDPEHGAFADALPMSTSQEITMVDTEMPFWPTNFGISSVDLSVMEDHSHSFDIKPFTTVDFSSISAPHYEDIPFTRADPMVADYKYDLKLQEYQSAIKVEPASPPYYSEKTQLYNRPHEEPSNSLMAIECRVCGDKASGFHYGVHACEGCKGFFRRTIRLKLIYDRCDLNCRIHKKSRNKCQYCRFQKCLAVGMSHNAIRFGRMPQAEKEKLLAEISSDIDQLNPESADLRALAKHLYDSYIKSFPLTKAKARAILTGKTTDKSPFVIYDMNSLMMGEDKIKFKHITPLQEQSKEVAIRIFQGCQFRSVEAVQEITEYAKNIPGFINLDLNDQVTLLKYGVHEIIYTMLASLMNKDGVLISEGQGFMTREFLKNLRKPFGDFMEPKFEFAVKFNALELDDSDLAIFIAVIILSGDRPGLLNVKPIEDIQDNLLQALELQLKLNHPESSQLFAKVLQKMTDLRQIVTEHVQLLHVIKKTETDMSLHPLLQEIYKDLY
# [1] = target: T4, human SXR ligand binding domain (Homo sapiens, UniProt O75469); assay: Gal-L-SXR (Gal-SXR) Gal4 reporter transient transfection assay in CV-1 cells
# T4 sequence (O75469 107-434 limits assumed): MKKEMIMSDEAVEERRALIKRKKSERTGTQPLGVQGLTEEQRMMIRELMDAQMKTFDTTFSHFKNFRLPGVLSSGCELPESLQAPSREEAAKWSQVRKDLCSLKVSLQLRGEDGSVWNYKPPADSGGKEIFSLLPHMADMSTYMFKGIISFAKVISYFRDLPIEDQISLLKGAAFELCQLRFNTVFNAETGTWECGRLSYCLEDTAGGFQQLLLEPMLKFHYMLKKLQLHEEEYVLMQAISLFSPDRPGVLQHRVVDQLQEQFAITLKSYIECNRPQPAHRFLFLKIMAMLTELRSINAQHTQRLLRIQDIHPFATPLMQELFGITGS
# From the text: Use of a standard model heterologous cell system to reconstitute SXR agonist and antagonist responsiveness allows SXR activity to be monitored in the absence of the metabolic events which may obscure the process being tested. Any suitable heterologous cell system may be used to test the activation of potential or known SXR nuclear receptor ligands, as long as the cells are capable of being transiently transfected with the appropriate DNA which expresses receptors, reporter genes, response elements, and the like. Cells which constitutively express one or more of the necessary genes may be used as well. Cell systems that are suitable for the transient expression of mammalian genes and which are amenable to maintenance in culture are well known to those skilled in the art. […] Suitable reporter gene constructs are well known to skilled workers in the fields of biochemistry and molecular biology. Activity of the reporter gene can be conveniently normalized to the internal control and the data plotted as fold activation relative to untreated cells.
# (§1) The Gal4 reporter activity was normalized to the internal β-galactosidase control and the data plotted as fold activation relative to untreated cells. All transfections contained the Gal4 reporter and a β-galactosidase expression vector as an internal control.
# Izbicka et al., Ann. Oncol.
# Gal-PXR containing the ligand binding domain of mouse PXR (#AF031814) was obtained from Bruce Blumberg.
# Transient Transffection Assays—CV-1 cells were grown and transfected as described.
# FXR = target: T5, FXR (Homo sapiens, UniProt Q96RI1); assay: Nuclear receptor specificity transfection assay; type: cell-based; conditions: 10 μM paclitaxel
# T5 construct: expressed in transfected cells; host or cells: CV-1
# T5 sequence (Q96RI1 whole entry, species assumed): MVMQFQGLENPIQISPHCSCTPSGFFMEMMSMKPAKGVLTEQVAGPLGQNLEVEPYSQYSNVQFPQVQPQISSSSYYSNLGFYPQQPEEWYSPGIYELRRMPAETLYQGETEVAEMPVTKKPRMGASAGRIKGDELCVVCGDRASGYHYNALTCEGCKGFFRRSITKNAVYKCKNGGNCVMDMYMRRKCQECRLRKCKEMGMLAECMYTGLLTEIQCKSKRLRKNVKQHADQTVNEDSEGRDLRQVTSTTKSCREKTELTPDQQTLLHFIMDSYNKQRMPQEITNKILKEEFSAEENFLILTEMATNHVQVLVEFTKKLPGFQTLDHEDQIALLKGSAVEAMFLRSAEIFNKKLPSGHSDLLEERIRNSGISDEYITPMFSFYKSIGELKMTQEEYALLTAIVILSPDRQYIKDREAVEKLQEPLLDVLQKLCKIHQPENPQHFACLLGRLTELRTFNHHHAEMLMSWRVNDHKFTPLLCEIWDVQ
# [2] = test system: MDR1 protein (P-glycoprotein); assay: Western analysis with P-glycoprotein antibody of LS180 cells; type: cell-based, human; conditions: 10 μM, 48 hours
# Description: Western Blotting was performed according to the following methods. Human LS180 cells in log phase growth were treated for 48 hours with the compounds indicated in the pertinent Figures. The cells were harvested, washed with phosphate buffered saline (PBS) and homogenized using 12-15 strokes of a Wheaton teflon-glass homogenizer. Cell debris was removed by centrifugation at 1500×g for 10 minutes, and the resulting supernatant was sedimented at 150,000×g for one hour at 4° C. to pellet the membranes. The membrane pellets were resuspended in PBS containing 1 mM phenylmethylsulfonyl fluoride and protein concentrations were determined according to standard prior art methods. […] The membranes were blocked with 5% non-fat dry milk in PBS with 0.1% Tween-20 (PBS-T) before incubation with a 1:500 dilution of P-glycoprotein antibody (Ab-1, Oncogene Research Products, Boston, Mass.) in blocking buffer for six hours at room temperature. Following several washes with PBS-T, membranes were incubated with a 1:1000 dilution of horseradish peroxidase-conjugated secondary anti-rabbit IgG antibodies. (Santa Cruz Biotechnology, Santa Cruz, Calif.) in blocking buffer for one hour at room temperature.
# CV-1 cells = assay: Potential cytotoxic effects at the concentrations and treatment times used; conditions: at the indicated concentrations and treatment times
# [3] = test system: thyroid hormone receptor β (TRβ); conditions: 10 μM paclitaxel
# [4] = target: T6, human RXRα ligand binding domain (Homo sapiens, UniProt P19793); assay: Gal-L-RXR Gal4 reporter transient transfection assay in CV-1 cells; type: cell-based; conditions: 10 μM paclitaxel
# T6 construct: expressed in transfected cells; host or cells: CV-1
# T6 sequence (P19793 203-462): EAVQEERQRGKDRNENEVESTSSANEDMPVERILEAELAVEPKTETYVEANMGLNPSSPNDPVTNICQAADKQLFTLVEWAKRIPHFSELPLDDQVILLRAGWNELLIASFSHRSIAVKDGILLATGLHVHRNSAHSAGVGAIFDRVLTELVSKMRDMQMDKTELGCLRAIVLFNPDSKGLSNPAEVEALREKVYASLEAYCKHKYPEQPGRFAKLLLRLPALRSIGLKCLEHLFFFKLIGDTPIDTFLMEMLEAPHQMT
# From the text: as §1
smiles,measurement,setting,value
CC(=O)O[C@H]1C(=O)[C@@]2(C)[C@H]([C@H](OC(=O)c3ccccc3)[C@]3(O)C[C@H](OC(=O)[C@H](O)[C@@H](NC(=O)c4ccccc4)c4ccccc4)C(C)=C1C3(C)C)[C@]1(OC(C)=O)CO[C@@H]1C[C@@H]2O [paclitaxel],effect on LXRα reporter activity,human LXRα,no effect
same,effect on RARα reporter activity,human RARα,no effect
same,effect on PPARγ reporter activity,mouse PPARγ,no effect
same,EC50,[1],~5 µM
same,effect on FXR reporter activity,FXR,no effect
same,induction of MDR1 protein (P-glycoprotein) expression,[2],much more effective than docetaxel
same,potential cytotoxic effects,CV-1 cells,minimal
same,effect on TRβ reporter activity,[3],no effect
same,effect on RXR reporter activity,[4],no effect
